Key:
Test in all cases: relative viability vs DMSO control (72 h) (fraction); higher = more viable cells
A204 = tested on: A204
How it was run: (§1)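 A 5 µM positive control and 0.1% DMSO vehicle ran alongside sarcoma cell lines seeded in 384-well plates to reach 80–90% confluence. Serially diluted compound, 2.5 µl from source plates of 10 mM to 0.0002 mM, was added after 24 h, and the plates were held 72 h at 37 °C, 5% CO2. Relative viability was worked out from ATPLite readings as percent growth averaged over up to triplicate wells. The values were rescaled so that 1 is full and 0 is none.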

G401 = tested on: G401
How it was run: as §1

HS729 = tested on: HS729
How it was run: as §1

KHOS-240S = tested on: KHOS-240S
How it was run: as §1

MES-SA = tested on: MES-SA
How it was run: as §1

RD = tested on: RD
How it was run: as §1

SK-ES-1 = tested on: SK-ES-1
How it was run: as §1

SK-LMS-1 = tested on: SK-LMS-1
How it was run: as §1

SW1353 = tested on: SW1353
How it was run: as §1

SW872 = tested on: SW872
How it was run: as §1

SW982 = tested on: SW982
How it was run: as §1

VA-ES-BJ = tested on: VA-ES-BJ
How it was run: as §1

Cc1c(F)cc(C(=O)NC2CC2)cc1-c1ccc(C(=O)NCC(C)(C)C)cn1 [Losmapimod]
Settings	relative viability
A204, 0.00017 µM	1.06
A204, 0.00051 µM	1.07
A204, 0.00152 µM	1.07
A204, 0.00457 µM	1.06
A204, 0.01372 µM	1.1
A204, 0.04115 µM	1.07
A204, 0.1235 µM	1.07
A204, 0.3704 µM	1.03
A204, 1.111 µM	1.03
A204, 3.333 µM	0.992
A204, 10 µM	0.901
G401, 0.00017 µM	1.06
G401, 0.00051 µM	1.03
G401, 0.00152 µM	1.05
G401, 0.00457 µM	1.074
G401, 0.01372 µM	1.03
G401, 0.04115 µM	1.01
G401, 0.1235 µM	0.981
G401, 0.3704 µM	0.964
G401, 1.111 µM	0.955
G401, 3.333 µM	0.904
G401, 10 µM	0.887
HS729, 0.00017 µM	1.09
HS729, 0.00051 µM	1.04
HS729, 0.00152 µM	1.06
HS729, 0.00457 µM	1.02
HS729, 0.01372 µM	0.972
HS729, 0.04115 µM	0.954
HS729, 0.1235 µM	0.903
HS729, 0.3704 µM	0.848
HS729, 1.111 µM	0.818
HS729, 3.333 µM	0.805
HS729, 10 µM	0.809
KHOS-240S, 0.00017 µM	1.07
KHOS-240S, 0.00051 µM	1.1
KHOS-240S, 0.00152 µM	1.07
KHOS-240S, 0.00457 µM	1.09
KHOS-240S, 0.01372 µM	1.04
KHOS-240S, 0.04115 µM	1.06
KHOS-240S, 0.1235 µM	1.02
KHOS-240S, 0.3704 µM	1
KHOS-240S, 1.111 µM	0.951
KHOS-240S, 3.333 µM	0.97
KHOS-240S, 10 µM	0.893
MES-SA, 0.00017 µM	0.997
MES-SA, 0.00051 µM	0.9963
MES-SA, 0.00152 µM	0.967
MES-SA, 0.00457 µM	0.951
MES-SA, 0.01372 µM	0.96
MES-SA, 0.04115 µM	0.935
MES-SA, 0.1235 µM	0.9396
MES-SA, 0.3704 µM	0.928
MES-SA, 1.111 µM	0.8915
MES-SA, 3.333 µM	0.866
MES-SA, 10 µM	0.879
RD, 0.00017 µM	1.11
RD, 0.00051 µM	1.11
RD, 0.00152 µM	1.1
RD, 0.00457 µM	1.14
RD, 0.01372 µM	1.12
RD, 0.04115 µM	1.13
RD, 0.1235 µM	1.11
RD, 0.3704 µM	1.07
RD, 1.111 µM	1.08
RD, 3.333 µM	1.02
RD, 10 µM	1.07
SK-ES-1, 0.00017 µM	1.08
SK-ES-1, 0.00051 µM	1.12
SK-ES-1, 0.00152 µM	1.09
SK-ES-1, 0.00457 µM	1.11
SK-ES-1, 0.01372 µM	1.07
SK-ES-1, 0.04115 µM	1.02
SK-ES-1, 0.1235 µM	1.01
SK-ES-1, 0.3704 µM	0.993
SK-ES-1, 1.111 µM	0.968
SK-ES-1, 3.333 µM	0.915
SK-ES-1, 10 µM	0.879
SK-LMS-1, 0.00017 µM	1.02
SK-LMS-1, 0.00051 µM	1.02
SK-LMS-1, 0.00152 µM	1.01
SK-LMS-1, 0.00457 µM	1
SK-LMS-1, 0.01372 µM	0.995
SK-LMS-1, 0.04115 µM	1.02
SK-LMS-1, 0.1235 µM	1.005
SK-LMS-1, 0.3704 µM	0.978
SK-LMS-1, 1.111 µM	0.981
SK-LMS-1, 3.333 µM	0.967
SK-LMS-1, 10 µM	0.946
SW872, 0.00017 µM	1.04
SW872, 0.00051 µM	1.08
SW872, 0.00152 µM	1.07
SW872, 0.00457 µM	1.05
SW872, 0.01372 µM	1.06
SW872, 0.04115 µM	1.04
SW872, 0.1235 µM	1.06
SW872, 0.3704 µM	1.04
SW872, 1.111 µM	1.05
SW872, 3.333 µM	1.04
SW872, 10 µM	1.04
SW982, 0.00017 µM	1.059
SW982, 0.00051 µM	1.07
SW982, 0.00152 µM	1.09
SW982, 0.00457 µM	1.07
SW982, 0.01372 µM	1.07
SW982, 0.04115 µM	1.07
SW982, 0.1235 µM	1.06
SW982, 0.3704 µM	1.07
SW982, 1.111 µM	1.06
SW982, 3.333 µM	1.02
SW982, 10 µM	1
SW1353, 0.00017 µM	1.06
SW1353, 0.00051 µM	1.06
SW1353, 0.00152 µM	1.08
SW1353, 0.00457 µM	1.07
SW1353, 0.01372 µM	1.09
SW1353, 0.04115 µM	1.08
SW1353, 0.1235 µM	1.08
SW1353, 0.3704 µM	1.09
SW1353, 1.111 µM	1.079
SW1353, 3.333 µM	1.07
SW1353, 10 µM	0.959
VA-ES-BJ, 0.00017 µM	1.11
VA-ES-BJ, 0.00051 µM	1.1
VA-ES-BJ, 0.00152 µM	1.07
VA-ES-BJ, 0.00457 µM	1.07
VA-ES-BJ, 0.01372 µM	1.07
VA-ES-BJ, 0.04115 µM	1.06
VA-ES-BJ, 0.1235 µM	0.988
VA-ES-BJ, 0.3704 µM	1.03
VA-ES-BJ, 1.111 µM	1.03
VA-ES-BJ, 3.333 µM	1.02
VA-ES-BJ, 10 µM	1

Reference: the supplement of paper PMC10883282
